Source: patent publication US7666890B2, “Synthesis and herbicidal activity of 1- (2-substituted benzo[d]thiazol-5-yl)-1H-1,2,4-triazol-5(4H)-one derivatives” (Huazhong Normal University, priority 2007, dated 2010)

What was measured:
Assay in all cases: Test of herbicidal activities (greenhouse pot method)
Type in all cases: in vivo
Details in all cases: single dose 300 g ai./h, treated before/after germination, 15 days later, greenhouse pot
Amaranthus retroflexus = test system: Amaranthus retroflexus
Method in brief: (§1)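 Greenhouse pot test at a single dose of 300 g ai./h, applied by spray tower pre- or post-emergence, with grasses at the 2-leaf stage, in triplicate with a blank control. Plants were kept at 15–30 °C. Inhibition was graded after 15 days: A 90–100%, B 80–<90%, C 60–<80%, D 50–<60%, E <50%.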

Brassica juncea = test system: Brassica juncea
Method in brief: as §1

Digiatria sanguinalis = test system: Digiatria sanguinalis
Method in brief: as §1

Setaria viridis = test system: Setaria viridis
Method in brief: as §1

Echinochloa crusgalli = test system: Echinochloa crusgalli
Method in brief: as §1

Chenopodium album = test system: Chenopodium album
Method in brief: as §1

| Structure (SMILES) | Herbicidal activity Amaranthus retroflexus (inhibition level) (Amaranthus retroflexus) | Herbicidal activity Brassica juncea (inhibition level) (Brassica juncea) | Herbicidal activity Digiatria sanguinalis (inhibition level) (Digiatria sanguinalis) | Herbicidal activity Setaria viridis (inhibition level) (Setaria viridis) | Herbicidal activity Echinochloa crusgalli (inhibition level) (Echinochloa crusgalli) | Herbicidal activity Chenopodium album (inhibition level) (Chenopodium album) |
| --- | --- | --- | --- | --- | --- | --- |
| CCCSc1nc2cc(-n3nc(C)n(C)c3=O)c(F)cc2s1 [Compound 33] | A (90 ≦ A ≦ 100%) | A (90 ≦ A ≦ 100%) | A (90 ≦ A ≦ 100%) | B (80 ≦ B < 90%) | B (80 ≦ B < 90%) | B (80 ≦ B < 90%) |
| CCCSc1nc2cc(-n3nc(C(F)(F)F)n(C(F)F)c3=O)c(Br)cc2s1 [Compound 129] | A (90 ≦ A ≦ 100%) | C (60 ≦ C < 80%) | A (90 ≦ A ≦ 100%) | C (60 ≦ C < 80%) | A (90 ≦ A ≦ 100%) | A (90 ≦ A ≦ 100%) |
| C=CCS(=O)(=O)c1nc2cc(-n3nc(C)n(C(F)F)c3=O)c(F)cc2s1 [Compound 66] | B (80 ≦ B < 90%) | B (80 ≦ B < 90%) | B (80 ≦ B < 90%) | A (90 ≦ A ≦ 100%) | A (90 ≦ A ≦ 100%) | B (80 ≦ B < 90%) |
| CCCCSc1nc2cc(-n3nc(C)n(C(F)F)c3=O)c(F)cc2s1 [Compound 91] | A (90 ≦ A ≦ 100%) | A (90 ≦ A ≦ 100%) | A (90 ≦ A ≦ 100%) | A (90 ≦ A ≦ 100%) | A (90 ≦ A ≦ 100%) | C (60 ≦ C < 80%) |
| C=CC[S+]([O-])c1nc2cc(-n3nc(C)n(C(F)F)c3=O)c(Br)cc2s1 (stereo not drawn) [Compound 117] | C (60 ≦ C < 80%) | C (60 ≦ C < 80%) | B (80 ≦ B < 90%) | E (E < 50%) | C (60 ≦ C < 80%) | B (80 ≦ B < 90%) |
| Cc1nn(-c2cc3nc(S(C)(=O)=O)sc3cc2F)c(=O)n1C [Compound 35] | B (80 ≦ B < 90%) | D (50 ≦ D < 60%) | A (90 ≦ A ≦ 100%) | A (90 ≦ A ≦ 100%) | C (60 ≦ C < 80%) | C (60 ≦ C < 80%) |
| CCC[S+]([O-])c1nc2cc(-n3nc(C)n(C(F)F)c3=O)c(F)cc2s1 (stereo not drawn) [Compound 121] | D (50 ≦ D < 60%) | C (60 ≦ C < 80%) | C (60 ≦ C < 80%) | D (50 ≦ D < 60%) | E (E < 50%) | A (90 ≦ A ≦ 100%) |
| C=CCSc1nc2cc(-n3nc(C(F)(F)F)n(C(F)F)c3=O)c(F)cc2s1 [Compound 123] | A (90 ≦ A ≦ 100%) | D (50 ≦ D < 60%) | B (80 ≦ B < 90%) | B (80 ≦ B < 90%) | D (50 ≦ D < 60%) | A (90 ≦ A ≦ 100%) |
| CCOC(=O)CS(=O)(=O)c1nc2cc(-n3nc(C)n(C(F)F)c3=O)c(F)cc2s1 [Compound 65] | A (90 ≦ A ≦ 100%) | A (90 ≦ A ≦ 100%) | B (80 ≦ B < 90%) | B (80 ≦ B < 90%) | C (60 ≦ C < 80%) | A (90 ≦ A ≦ 100%) |
| Cc1nn(-c2cc3nc(SCc4csc(Cl)n4)sc3cc2F)c(=O)n1C(F)F [Compound 10] | B (80 ≦ B < 90%) | A (90 ≦ A ≦ 100%) | C (60 ≦ C < 80%) | C (60 ≦ C < 80%) | B (80 ≦ B < 90%) | C (60 ≦ C < 80%) |
| Cc1nn(-c2cc3nc(SCc4ccc(F)cc4F)sc3cc2Cl)c(=O)n1C(F)F [Compound 8] | C (60 ≦ C < 80%) | C (60 ≦ C < 80%) | B (80 ≦ B < 90%) | C (60 ≦ C < 80%) | E (E < 50%) | C (60 ≦ C < 80%) |
| Cc1nn(-c2cc3nc(SCc4cccc(Br)c4)sc3cc2F)c(=O)n1C(F)F [Compound 21] | A (90 ≦ A ≦ 100%) | B (80 ≦ B < 90%) | B (80 ≦ B < 90%) | E (E < 50%) | C (60 ≦ C < 80%) | B (80 ≦ B < 90%) |
| CCCCCCSc1nc2cc(-n3nc(C)n(C(F)F)c3=O)c(Cl)cc2s1 [Compound 85] | B (80 ≦ B < 90%) | B (80 ≦ B < 90%) | A (90 ≦ A ≦ 100%) | A (90 ≦ A ≦ 100%) | B (80 ≦ B < 90%) | B (80 ≦ B < 90%) |
| C=CCS(=O)(=O)c1nc2cc(-n3nc(C)n(C(F)F)c3=O)c(Br)cc2s1 [Compound 60] | A (90 ≦ A ≦ 100%) | A (90 ≦ A ≦ 100%) | A (90 ≦ A ≦ 100%) | C (60 ≦ C < 80%) | B (80 ≦ B < 90%) | B (80 ≦ B < 90%) |
| CCCSc1nc2cc(-n3nc(C)n(C(F)F)c3=O)c(F)cc2s1 [Compound 92] | A (90 ≦ A ≦ 100%) | A (90 ≦ A ≦ 100%) | B (80 ≦ B < 90%) | C (60 ≦ C < 80%) | B (80 ≦ B < 90%) | E (E < 50%) |
| Cc1nn(-c2cc3nc(SCc4cccc(Cl)c4)sc3cc2F)c(=O)n1C(F)F [Compound 23] | A (90 ≦ A ≦ 100%) | E (E < 50%) | C (60 ≦ C < 80%) | D (50 ≦ D < 60%) | C (60 ≦ C < 80%) | D (50 ≦ D < 60%) |
| Cc1nn(-c2cc3nc(S(C)(=O)=O)sc3cc2Cl)c(=O)n1C(F)F [Compound 68] | A (90 ≦ A ≦ 100%) | B (80 ≦ B < 90%) | B (80 ≦ B < 90%) | B (80 ≦ B < 90%) | A (90 ≦ A ≦ 100%) | C (60 ≦ C < 80%) |
| CCC[S+]([O-])c1nc2cc(-n3nc(C)n(C(F)F)c3=O)c(Br)cc2s1 (stereo not drawn) [Compound 110] | B (80 ≦ B < 90%) | B (80 ≦ B < 90%) | B (80 ≦ B < 90%) | C (60 ≦ C < 80%) | A (90 ≦ A ≦ 100%) | B (80 ≦ B < 90%) |
